Type in all cases: functional
Experiment [1] is described as follows: Ratio of AUC to MIC in Streptococcus pneumoniae ATCC 49619.
The subject of experiment [2] is Streptococcus pneumoniae. Briefly: Antibacterial activity against Streptococcus pneumoniae ATCC 49619.
In experiment [3] the test system is Streptococcus pneumoniae. In words: Antibacterial activity against Streptococcus pneumoniae ATCC 49619 assessed as 50% mutant prevention concentration.
The test system of experiment [4] is Streptococcus pneumoniae. Briefly: Antibacterial activity against Streptococcus pneumoniae ATCC 49619 assessed as 90% mutant prevention concentration.
The subject of experiment [5] is Streptococcus pneumoniae. In words: Ratio of 50% mutant prevention concentration to MIC50 in Streptococcus pneumoniae ATCC 49619.
Experiment [6] concerns Streptococcus pneumoniae. Briefly: Ratio of 90% mutant prevention concentration to MIC90 in Streptococcus pneumoniae ATCC 49619.
The subject of experiment [7] is Streptococcus pneumoniae. In words: Antibacterial activity against Streptococcus pneumoniae 1072 by standard agar dilution method. For orientation: Agar dilution tests growth on a series of plates holding different concentrations.
Experiment [8] relates to Streptococcus pneumoniae. Briefly: Antibacterial activity against Streptococcus pneumoniae 1149 by standard agar dilution method.
The subject of experiment [9] is Streptococcus pneumoniae. In words: Antibacterial activity against Streptococcus pneumoniae 1151 by standard agar dilution method.
In experiment [10] the test system is Streptococcus pneumoniae. In words: Antibacterial activity against Streptococcus pneumoniae 3321 by standard agar dilution method.
The subject of experiment [11] is Streptococcus pneumoniae. Briefly: Antibacterial activity against Streptococcus pneumoniae 1058 by standard agar dilution method.
In experiment [12] the test system is Streptococcus pneumoniae. In words: Antibacterial activity against Streptococcus pneumoniae 1065 by standard agar dilution method.
Experiment [13] relates to Streptococcus pneumoniae. In words: Antibacterial activity against Streptococcus pneumoniae 1135 by standard agar dilution method.
The test system of experiment [14] is Streptococcus pneumoniae. Briefly: Antibacterial activity against Streptococcus pneumoniae 1072 assessed as mutant prevention concentration by standard agar dilution method.
The test system of experiment [15] is Streptococcus pneumoniae. In words: Antibacterial activity against Streptococcus pneumoniae 1149 assessed as mutant prevention concentration by standard agar dilution method.
Experiment [16] concerns Streptococcus pneumoniae. Briefly: Antibacterial activity against Streptococcus pneumoniae 1151 assessed as mutant prevention concentration by standard agar dilution method.
The test system of experiment [17] is Streptococcus pneumoniae. In words: Antibacterial activity against Streptococcus pneumoniae 3321 assessed as mutant prevention concentration by standard agar dilution method.
For experiment [18], the system named is Streptococcus pneumoniae. Briefly: Antibacterial activity against Streptococcus pneumoniae 1058 assessed as mutant prevention concentration by standard agar dilution method.
In experiment [19] the test system is Streptococcus pneumoniae. In words: Antibacterial activity against Streptococcus pneumoniae 1065 assessed as mutant prevention concentration by standard agar dilution method.
In experiment [20] the test system is Streptococcus pneumoniae. Briefly: Antibacterial activity against Streptococcus pneumoniae 1135 assessed as mutant prevention concentration by standard agar dilution method.

The source of these data is ChEMBL document CHEMBL1212804, “Comparative study of the mutant prevention concentrations of moxifloxacin, levofloxacin, and gemifloxacin against pneumococci” (2010).

The structures appear in SMILES notation. ≈ marks a conversion by molar mass, not a printed value.

As a reminder, the MIC50 is an inhibitory concentration at the 50% level, which refers to growth in some studies and to a panel of isolates in others. High values mean lower susceptibility, low ones higher susceptibility. As a reminder, the MIC90 is an inhibitory concentration at the 90% level, which refers to growth in some studies and to a panel of isolates in others. Higher therefore signals weaker potency. As usually defined, the MIC is the least concentration at which growth counts as inhibited. Lower therefore signals inhibition by little substance.

`O=C(O)c1cn(C2CC2)c2cc(N3CCNCC3)c(F)cc2c1=O`: in experiment [1], the RatioAUC/MIC was 30.

In the experiment on Streptococcus pneumoniae [2], `CO/N=C1\CN(c2nc3c(cc2F)c(=O)c(C(=O)O)cn3C2CC2)CC1CN` (configuration not stated) [GEMIFLOXACIN] displayed an MIC50 of 0.125 µg/mL (≈ 0.321 µM). In the experiment on Streptococcus pneumoniae [2], this compound displayed an MIC90 of 1 µg/mL (≈ 2.57 µM). Moreover, the Activity with Streptococcus pneumoniae [3] was 0.5 µg/mL; in the experiment with Streptococcus pneumoniae [4], 4 µg/mL; in the experiment with Streptococcus pneumoniae [14] it was 8 µg/mL; in the experiment with Streptococcus pneumoniae [15], greater than 8 µg/mL; in the experiment with Streptococcus pneumoniae [16] it was 8 µg/mL; in the experiment on Streptococcus pneumoniae [17], 2 µg/mL. Further, the Activity came out at 1 µg/mL with Streptococcus pneumoniae [18], 4 µg/mL in the experiment with Streptococcus pneumoniae [19] and 4 µg/mL in the experiment on Streptococcus pneumoniae [20]. Moreover, the Ratio in the experiment with Streptococcus pneumoniae [5] and with Streptococcus pneumoniae [6] was 4 each time. For the same compound, the MIC against Streptococcus pneumoniae [7] is 1 µg/mL (≈ 2.57 µM); in the experiment on Streptococcus pneumoniae [8], 0.5 µg/mL (≈ 1.28 µM); with Streptococcus pneumoniae [9] it was 1 µg/mL (≈ 2.57 µM); against Streptococcus pneumoniae [10], 0.125 µg/mL (≈ 0.321 µM); in the experiment on Streptococcus pneumoniae [11], 0.125 µg/mL (≈ 0.321 µM); against Streptococcus pneumoniae [12], 0.125 µg/mL (≈ 0.321 µM). The compound further yielded an MIC against Streptococcus pneumoniae [13] of 0.5 µg/mL (≈ 1.28 µM).

`C[C@H]1COc2c(N3CCN(C)CC3)c(F)cc3c(=O)c(C(=O)O)cn1c23.C[C@H]1COc2c(N3CCN(C)CC3)c(F)cc3c(=O)c(C(=O)O)cn1c23.O` [LEVOFLOXACIN] displayed an MIC50 in the experiment with Streptococcus pneumoniae [2] of 2 µg/mL. In the experiment with Streptococcus pneumoniae [2], the MIC90 was found to be 32 µg/mL. In addition, the Activity is 4 µg/mL with Streptococcus pneumoniae [3]; 64 µg/mL with Streptococcus pneumoniae [4]; 256 µg/mL with Streptococcus pneumoniae [14]; greater than 64 µg/mL in the experiment on Streptococcus pneumoniae [15]; 32 µg/mL in the experiment with Streptococcus pneumoniae [16]; 32 µg/mL in the experiment with Streptococcus pneumoniae [17]. In addition, the Activity in the experiment with Streptococcus pneumoniae [18] amounted to 64 µg/mL; in the experiment with Streptococcus pneumoniae [19], 32 µg/mL; in the experiment on Streptococcus pneumoniae [20] it was 128 µg/mL.

In the experiment with Streptococcus pneumoniae [2], `COc1c(N2C[C@@H]3CCCN[C@@H]3C2)c(F)cc2c(=O)c(C(=O)O)cn(C3CC3)c12` [MOXIFLOXACIN] came in with an MIC50 of 0.5 µg/mL (≈ 1.25 µM). Further, the MIC90 in the experiment on Streptococcus pneumoniae [2] is 4 µg/mL (≈ 9.96 µM). The Activity with Streptococcus pneumoniae [3] was 1 µg/mL; in the experiment on Streptococcus pneumoniae [4], 16 µg/mL; in the experiment on Streptococcus pneumoniae [14], 64 µg/mL; in the experiment on Streptococcus pneumoniae [15] it was greater than 8 µg/mL; with Streptococcus pneumoniae [16], greater than 8 µg/mL; with Streptococcus pneumoniae [17], greater than 8 µg/mL. Moreover, the Activity is greater than 4 µg/mL in the experiment with Streptococcus pneumoniae [18], greater than 8 µg/mL in the experiment on Streptococcus pneumoniae [19] and 32 µg/mL with Streptococcus pneumoniae [20]. For the same compound, the Ratio in the experiment with Streptococcus pneumoniae [5] amounted to 2; in the experiment with Streptococcus pneumoniae [6], 4. For the same compound, the MIC was 8 µg/mL (≈ 19.9 µM) with Streptococcus pneumoniae [7]; 0.5 µg/mL (≈ 1.25 µM) against Streptococcus pneumoniae [8]; 1 µg/mL (≈ 2.49 µM) against Streptococcus pneumoniae [9]; 0.5 µg/mL (≈ 1.25 µM) in the experiment with Streptococcus pneumoniae [10]; 0.5 µg/mL (≈ 1.25 µM) against Streptococcus pneumoniae [11]; 0.5 µg/mL (≈ 1.25 µM) with Streptococcus pneumoniae [12]. Moreover, 2 µg/mL (≈ 4.98 µM) was the least that counted as inhibitory in the experiment on Streptococcus pneumoniae [13] (MIC).
